Measurements published in patent publication US10730872B2, “Pesticidally active heterocyclic derivatives with sulphur containing sustitutents” (SYNGENTA PARTICIPATIONS AG, priority 2015, dated 2020).

Experiments:
Format in all cases: in vivo
Euschistus heros = Euschistus heros (Neotropical Brown Stink Bug); conditions: 120 h, application rate of 200 ppm, sprayed soybean leaves, N2 nymphs, 5 days after infestation, read-out: effect in at least one of the two categories (mortality or growth inhibition)
Method: Soybean leaves on agar in 24-well microtiter plates were sprayed with aqueous test solutions prepared from 10,000 ppm DMSO stock solutions. After drying the leaves were infested with N2 nymphs. The samples were assessed for mortality and growth inhibition in comparison to untreated samples 5 days after infestation.

Bemisia tabaci = Bemisia tabaci (Cotton White Fly): Feeding/Contact Activity; conditions: foliar, 144 h, application rate of 200 ppm, sprayed cotton leaf discs, adult white flies, 6 days after incubation
Method: Cotton leaf discs were placed on agar in 24-well microtiter plates and sprayed with aqueous test solutions prepared from 10,000 ppm DMSO stock solutions. After drying the leaf discs were infested with adult white flies. The samples were checked for mortality 6 days after incubation.

Myzus persicae [1] = assay: Myzus persicae (Green Peach Aphid). Systemic Activity; conditions: 144 h, test rate of 24 ppm, roots of infested pea seedlings in test solution, 6 days
Method: Roots of pea seedlings infested with an aphid population of mixed ages were placed directly into aqueous test solutions prepared from 10,000 DMSO stock solutions. The samples were assessed for mortality 6 days after placing seedlings into test solutions.

Plutella xylostella = Plutella xylostella (Diamond Back Moth); conditions: 120 h, application rate of 200 ppm, artificial diet, L2 larvae, 5 days after infestation, read-out: effect in at least one of the two categories (mortality or growth inhibition)
Method: 24-well microtiter plates with artificial diet were treated with aqueous test solutions prepared from 10,000 ppm DMSO stock solutions by pipetting. After drying, the plates were infested with L2 larvae (10 to 15 per well). The samples were assessed for mortality and growth inhibition in comparison to untreated samples 5 days after infestation.

Myzus persicae [2] = assay: Myzus persicae (Green Peach Aphid): Feeding/Contact Activity; conditions: foliar, 144 h, application rate of 200 ppm, sprayed sunflower leaf discs, aphid population of mixed ages, 6 days after infestation
Method: Sunflower leaf discs were placed onto agar in a 24-well microtiter plate and sprayed with aqueous test solutions prepared from 10,000 ppm DMSO stock solutions. After drying, the leaf discs were infested with an aphid population of mixed ages. The samples were assessed for mortality 6 days after infestation.

Spodoptera littoralis [3] = assay: Spodoptera littoralis (Egyptian Cotton Leaf Worm), sprayed cotton leaf discs; conditions: foliar, 72 h, application rate of 200 ppm, L1 larvae, 3 days after infestation
Method: Cotton leaf discs were placed onto agar in 24-well microtiter plates and sprayed with aqueous test solutions prepared from 10,000 ppm DMSO stock solutions. After drying the leaf discs were infested with five L1 larvae. The samples were assessed for mortality, anti-feeding effect, and growth inhibition in comparison to untreated samples 3 days after infestation. Control of Spodoptera littoralis by a test sample is given when at least one of the categories mortality, anti-feedant effect, and growth inhibition is higher than the untreated sample.

Diabrotica balteata = Diabrotica balteata (Corn Root Worm); conditions: 96 h, application rate of 200 ppm, sprayed maize sprouts, L2 larvae, 4 days after infestation, read-out: effect in at least one of the two categories (mortality or growth inhibition)
Method: Maize sprouts placed onto an agar layer in 24-well microtiter plates were treated with aqueous test solutions prepared from 10,000 ppm DMSO stock solutions by spraying. After drying, the plates were infested with L2 larvae (6 to 10 per well). The samples were assessed for mortality and growth inhibition in comparison to untreated samples 4 days after infestation.

Spodoptera littoralis [4] = assay: Spodoptera littoralis (Egyptian Cotton Leaf Worm), uptake by lettuce roots from agar; conditions: 144 h, test rate of 12.5 ppm, mixed with agar, absorbed by lettuce roots, Spodoptera eggs, 6 days after infestation, read-out: effect in at least one of the three categories (mortality, anti-feeding, or growth inhibition)
Description: Test compounds were applied by pipette from 10,000 ppm DMSO stock solutions into 24-well plates and mixed with agar. Lettuce seeds were placed onto the agar and the multi well plate was closed by another plate which contained also agar. After 7 days the compound was absorbed by the roots and the lettuce grew into the lid plate. The lettuce leaves were then cut off into the lid plate. Spodoptera eggs were pipetted through a plastic stencil onto a humid gel blotting paper and the lid plate was closed with it. The samples were assessed for mortality, anti-feedant effect and growth inhibition in comparison to untreated samples 6 days after infestation.

CCn1c(C(F)(F)F)cc2nc(-c3ncc(NC(=O)C4CC4)cc3S(=O)(=O)CC)n(C)c2c1=O [Compound A7, N-[6-[5-ethyl-3-methyl-4-oxo-6-(trifluoromethyl)imidazo[4,5-c]pyridin-2-yl]-5-ethylsulfonyl-3-pyridyl]cyclopropanecarboxamide]
≥ 80%: percent effect (mortality or growth inhibition) at 200 ppm (Euschistus heros) | mortality at 200 ppm (Bemisia tabaci) | mortality at 24 ppm (Myzus persicae [1]) | percent effect (mortality or growth inhibition) at 200 ppm (Plutella xylostella) | mortality at 200 ppm (Myzus persicae [2]) | percent control (mortality, anti-feeding effect or growth inhibition) at 200 ppm (Spodoptera littoralis [3])

CCn1c(C(F)(F)F)cc2nc(-c3ncc(C(=O)N(C)C4CC4)cc3S(=O)(=O)CC)n(C)c2c1=O [Compound A17, N-cyclopropyl-6-[5-ethyl-3-methyl-4-oxo-6-(trifluoromethyl)imidazo[4,5-c]pyridin-2-yl]-5-ethylsulfonyl-N-methyl-pyridine-3-carboxamide]
≥ 80%: percent effect (mortality or growth inhibition) at 200 ppm (Euschistus heros) | mortality at 24 ppm (Myzus persicae [1]) | percent effect (mortality or growth inhibition) at 200 ppm (Plutella xylostella)

CCn1c(C(F)(F)F)cc2nc(-c3nc(C(=O)N(C)C4CC4)ccc3S(=O)(=O)CC)n(C)c2c1=O [Compound A18, N-cyclopropyl-6-[5-ethyl-3-methyl-4-oxo-6-(trifluoromethyl)imidazo[4,5-c]pyridin-2-yl]-5-ethylsulfonyl-N-methyl-pyridine-2-carboxamide]
≥ 80%: mortality at 200 ppm (Bemisia tabaci) | mortality at 24 ppm (Myzus persicae [1]) | percent effect (mortality or growth inhibition) at 200 ppm (Plutella xylostella) | mortality at 200 ppm (Myzus persicae [2]) | percent control (mortality, anti-feeding effect or growth inhibition) at 200 ppm (Spodoptera littoralis [3])

CCn1c(C(F)(F)F)cc2nc(-c3ncc(N(C)N(C)C(=O)C4CC4)cc3S(=O)(=O)CC)n(C)c2c1=O [Compound A22, N′-[6-[5-ethyl-3-methyl-4-oxo-6-(trifluoromethyl)imidazo[4,5-c]pyridin-2-yl]-5-ethylsulfonyl-3-pyridyl]-N,N′-dimethyl-cyclopropanecarbohydrazide]
≥ 80%: percent effect (mortality or growth inhibition) at 200 ppm (Euschistus heros) | mortality at 24 ppm (Myzus persicae [1]) | percent effect (mortality or growth inhibition) at 200 ppm (Plutella xylostella) | percent control (mortality, anti-feeding effect or growth inhibition) at 200 ppm (Spodoptera littoralis [3])

CCn1c(C(F)(F)F)cc2nc(-c3ncc(N/C=N/OC)cc3S(=O)(=O)CC)n(C)c2c1=O [Compound A26, N-[6-[5-ethyl-3-methyl-4-oxo-6-(trifluoromethyl)imidazo[4,5-c]pyridin-2-yl]-5-ethylsulfonyl-3-pyridyl]-N′-methoxy-formamidine]
≥ 80%: percent effect (mortality or growth inhibition) at 200 ppm (Euschistus heros) | effect mortality or growth inhibition at 200 ppm (Diabrotica balteata) | percent effect (mortality, anti-feeding or growth inhibition) at 12.5 ppm (Spodoptera littoralis [4]) | percent effect (mortality or growth inhibition) at 200 ppm (Plutella xylostella) | percent control (mortality, anti-feeding effect or growth inhibition) at 200 ppm (Spodoptera littoralis [3])

CCn1c(C(F)(F)F)cc2nc(-c3ncc(C(=O)NCC#N)cc3S(=O)(=O)CC)n(C)c2c1=O [Compound A28, N-(cyanomethyl)-6-[5-ethyl-3-methyl-4-oxo-6-(trifluoromethyl)imidazo[4,5-c]pyridin-2-yl]-5-ethylsulfonyl-pyridine-3-carboxamide]
≥ 80%: percent effect (mortality or growth inhibition) at 200 ppm (Euschistus heros) | mortality at 24 ppm (Myzus persicae [1]) | percent effect (mortality or growth inhibition) at 200 ppm (Plutella xylostella) | mortality at 200 ppm (Myzus persicae [2])

CCn1c(C(F)(F)F)cc2nc(-c3ncc(N(C)S(=O)(=O)C4CC4)cc3S(=O)(=O)CC)n(C)c2c1=O [Compound A37, N-[6-[5-ethyl-3-methyl-4-oxo-6-(trifluoromethyl)imidazo[4,5-c]pyridin-2-yl]-5-ethylsulfonyl-3-pyridyl]-N-methyl-cyclopropanesulfonamide]
≥ 80%: percent effect (mortality or growth inhibition) at 200 ppm (Euschistus heros) | effect mortality or growth inhibition at 200 ppm (Diabrotica balteata) | mortality at 200 ppm (Bemisia tabaci) | percent effect (mortality or growth inhibition) at 200 ppm (Plutella xylostella) | percent control (mortality, anti-feeding effect or growth inhibition) at 200 ppm (Spodoptera littoralis [3])

CCS(=O)(=O)c1ccc(NO)nc1-c1nc2cc(C(F)(F)F)n(C3CC3)c(=O)c2n1C [Compound A47, 5-cyclopropyl-2-[3-ethylsulfonyl-6-(hydroxyamino)-2-pyridyl]-3-methyl-6-(trifluoromethyl)imidazo[4,5-c]pyridin-4-one]
≥ 80%: percent effect (mortality or growth inhibition) at 200 ppm (Euschistus heros) | effect mortality or growth inhibition at 200 ppm (Diabrotica balteata) | mortality at 200 ppm (Bemisia tabaci) | mortality at 24 ppm (Myzus persicae [1]) | percent effect (mortality or growth inhibition) at 200 ppm (Plutella xylostella) | mortality at 200 ppm (Myzus persicae [2]) | percent control (mortality, anti-feeding effect or growth inhibition) at 200 ppm (Spodoptera littoralis [3])

CCS(=O)(=O)c1cc(C)c(N)nc1-c1nc2cc(C(F)(F)F)n(C3CC3)c(=O)c2n1C [Compound A49, 2-(6-amino-5-methyl-3-ethylsulfonyl-2-pyridyl)-5-cyclopropyl-3-methyl-6-(trifluoromethyl)imidazo[4,5-c]pyridin-4-one]
≥ 80%: effect mortality or growth inhibition at 200 ppm (Diabrotica balteata) | mortality at 200 ppm (Bemisia tabaci) | mortality at 24 ppm (Myzus persicae [1]) | percent effect (mortality or growth inhibition) at 200 ppm (Plutella xylostella) | mortality at 200 ppm (Myzus persicae [2]) | percent control (mortality, anti-feeding effect or growth inhibition) at 200 ppm (Spodoptera littoralis [3])

CCn1c(C(F)(F)F)cc2nc(-c3nc(Cl)c(N)cc3S(=O)(=O)CC)n(C)c2c1=O [Compound A53, 2-(5-amino-6-chloro-3-ethylsulfonyl-2-pyridyl)-5-ethyl-3-methyl-6-(trifluoromethyl)imidazo[4,5-c]pyridin-4-one]
≥ 80%: effect mortality or growth inhibition at 200 ppm (Diabrotica balteata) | percent effect (mortality, anti-feeding or growth inhibition) at 12.5 ppm (Spodoptera littoralis [4]) | percent effect (mortality or growth inhibition) at 200 ppm (Plutella xylostella) | mortality at 200 ppm (Myzus persicae [2]) | percent control (mortality, anti-feeding effect or growth inhibition) at 200 ppm (Spodoptera littoralis [3])

CCn1c(C(F)(F)F)cc2nc(-c3ncc(NC(=O)C4(C#N)CC4)cc3S(=O)(=O)CC)n(C)c2c1=O [Compound A55, 1-cyano-N-[6-[5-ethyl-3-methyl-4-oxo-6-(trifluoromethyl)imidazo[4,5-c]pyridin-2-yl]-5-ethylsulfonyl-3-pyridyl]cyclopropanecarboxamide]
≥ 80%: mortality at 24 ppm (Myzus persicae [1]) | percent effect (mortality or growth inhibition) at 200 ppm (Plutella xylostella) | mortality at 200 ppm (Myzus persicae [2]) | percent control (mortality, anti-feeding effect or growth inhibition) at 200 ppm (Spodoptera littoralis [3])

CCS(=O)(=O)c1ccc(NC(=O)OC(C)(C)C)nc1-c1nc2cc(C(F)(F)F)n(C3CC3)c(=O)c2n1C [Compound A63, Tert-butyl N-[6-[5-cyclopropyl-3-methyl-4-oxo-6-(trifluoromethyl)imidazo[4,5-c]pyridin-2-yl]-5-ethylsulfonyl-2-pyridyl]carbamate]
≥ 80%: effect mortality or growth inhibition at 200 ppm (Diabrotica balteata) | mortality at 200 ppm (Bemisia tabaci) | percent effect (mortality or growth inhibition) at 200 ppm (Plutella xylostella) | percent control (mortality, anti-feeding effect or growth inhibition) at 200 ppm (Spodoptera littoralis [3])

CCn1c(C(F)(F)F)cc2nc(-c3nc(N)c(C#N)cc3S(=O)(=O)CC)n(C)c2c1=O [Compound A72]
≥ 80%: percent effect (mortality or growth inhibition) at 200 ppm (Euschistus heros) | mortality at 24 ppm (Myzus persicae [1]) | percent effect (mortality or growth inhibition) at 200 ppm (Plutella xylostella) | percent control (mortality, anti-feeding effect or growth inhibition) at 200 ppm (Spodoptera littoralis [3])
